Experiments:
Assay type in all cases: in vivo
rice (Oryza sativa) = experiment: Test B flooded paddy test, visual plant response rating 0-100; conditions: 250 g ai/ha, Flood, applied to paddy water, evaluated after 13 days
In short: (§1)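 Visual scores versus untreated controls were recorded 13 days after treatment of greenhouse-held plants. At the 2-leaf stage, pots were flooded 3 cm above the soil surface and compounds added straight to the water.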

[1] = tested on: barnyardgrass (Echinochloa crusgalli); experiment: as above; conditions: 250 g ai/ha, Flood, applied to paddy water, evaluated after 13 days
In short: as §1

[2] = tested on: sedge, umbrella (small-flower umbrella sedge, Cyperus difformis); experiment: as above; conditions: 250 g ai/ha, Flood, applied to paddy water, evaluated after 13 days
In short: as §1

[3] = tested on: ducksalad (Heteranthera limosa); experiment: as above; conditions: 250 g ai/ha, Flood, applied to paddy water, evaluated after 13 days
In short: as §1

[4] = tested on: ragweed (common ragweed, Ambrosia artemisiifolia); experiment: Test A preemergence soil spray, visual injury rating 0-100; conditions: 10 days
In short: (§2)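 Loam-sand pots got test material in surfactant-containing solvent, either as a directed soil spray before emergence or on plants at the one- to two-leaf stage. Visual injury (0-100) was read after ten greenhouse days.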

[5] = tested on: blackgrass (Alopecurus myosuroides); experiment: as above; conditions: 10 days
In short: as §2

[6] = tested on: wheat (Triticum aestivum); experiment: as above; conditions: 10 days
In short: as §2

[7] = tested on: ryegrass, Italian (italian ryegrass, Lolium multiflorum); experiment: as above; conditions: 10 days
In short: as §2

[8] = tested on: barnyardgrass (Echinochloa crus-galli); experiment: as above; conditions: 10 days
In short: as §2

soybean (Glycine max) [9] = experiment: as above; conditions: 10 days
In short: as §2

corn (Zea mays) [10] = experiment: as above; conditions: 10 days
In short: as §2

kochia (Bassia scoparia) [11] = experiment: as above; conditions: 10 days
In short: as §2

[12] = tested on: green foxtail (Setaria viridis); experiment: as above; conditions: 10 days
In short: as §2

[13] = tested on: oat, wild (wild oat, Avena fatua); experiment: as above; conditions: 10 days
In short: as §2

[14] = tested on: palmer (palmer amaranth, palmer pigweed, Amaranthus palmeri); experiment: as above; conditions: 10 days
In short: as §2

[15] = tested on: ragweed (common ragweed, Ambrosia artemisiifolia); experiment: Test A postemergence application, visual injury rating 0-100
In short: as §2

[16] = tested on: horseweed (Erigeron canadensis); experiment: as above
In short: as §2

[17] = tested on: galium (catchweed bedstraw, Galium aparine); experiment: as above
In short: as §2

[18] = tested on: blackgrass (Alopecurus myosuroides); experiment: as above
In short: as §2

[19] = tested on: wheat (Triticum aestivum); experiment: as above
In short: as §2

[20] = tested on: ryegrass, Italian (italian ryegrass, Lolium multiflorum); experiment: as above
In short: as §2

[21] = tested on: barnyardgrass (Echinochloa crus-galli); experiment: as above
In short: as §2

soybean (Glycine max) [22] = experiment: as above
In short: as §2

corn (Zea mays) [23] = experiment: as above
In short: as §2

kochia (Bassia scoparia) [24] = experiment: as above
In short: as §2

[25] = tested on: green foxtail (Setaria viridis); experiment: as above
In short: as §2

[26] = tested on: oat, wild (wild oat, Avena fatua); experiment: as above
In short: as §2

[27] = tested on: palmer (palmer amaranth, palmer pigweed, Amaranthus palmeri); experiment: as above
In short: as §2

[28] = 62 g ai/ha, 0 = no effect, 100 = complete control
[29] = 62 g ai/ha, postemergence, 10 days, 0 = no effect, 100 = complete control
[30] = Postemergence, 16 g ai/ha, greenhouse 10 days, 0 no effect, 100 complete control

For `C=CC1(C(=O)NC2C=CC(C(=O)OC)C2)CN(c2cc(F)cc(F)c2)C(=O)O1` (single isomer, unassigned) [Compound 167], the “Plant response rating, Rice (0 to 100 scale, 0 is no effect and 100 is complete control)” value (rice (Oryza sativa)) was 98, the “Plant response rating, Barnyardgrass (0 to 100 scale, 0 is no effect and 100 is complete control)” value [1] was 90 and the “Plant response rating, Sedge, Umbrella (0 to 100 scale, 0 is no effect and 100 is complete control)” value [2] was 98. The “Plant response rating, Ducksalad (0 to 100 scale, 0 is no effect and 100 is complete control)” value [3] was 98, the “Ragweed plant response rating” value ([4]; 16 g ai/ha, 0 to 100 scale) was 60 and the “Ragweed plant response rating (0-100)” value [4, 28] was 90. The “Blackgrass plant response rating” value ([5]; 16 g ai/ha, 0 to 100 scale) was 30, the “Blackgrass plant response rating (0-100)” value [5, 28] was 70 and the “Wheat plant response rating” value ([6]; 16 g ai/ha, 0 to 100 scale) was 70. The “Wheat plant response rating (0-100)” value [6, 28] was 90, the “Ryegrass, Italian plant response rating” value ([7]; 16 g ai/ha, 0 to 100 scale) was 80 and the “Ryegrass, Italian plant response rating (0-100)” value [7, 28] was 90. For the same compound, the “Barnyardgrass plant response rating” value ([8]; 16 g ai/ha, 0 to 100 scale) was 60, the “Barnyardgrass plant response rating (0-100)” value [8, 28] was 100 and the “Soybean plant response rating” value (soybean (Glycine max) [9]; 16 g ai/ha, 0 to 100 scale) was 70. The “Soybean plant response rating (0-100)” value (soybean (Glycine max) [9]; [28]) was 80, the “Corn plant response rating” value (corn (Zea mays) [10]; 16 g ai/ha, 0 to 100 scale) was 40 and the “Corn plant response rating (0-100)” value (corn (Zea mays) [10]; [28]) was 90. For the same compound, the “Kochia plant response rating” value (kochia (Bassia scoparia) [11]; 16 g ai/ha, 0 to 100 scale) was 70, the “Kochia plant response rating (0-100)” value (kochia (Bassia scoparia) [11]; [28]) was 100 and the “Foxtail, Green plant response rating” value ([12]; 16 g ai/ha, 0 to 100 scale) was 90. For the same compound, the “Foxtail, Green plant response rating (0-100)” value [12, 28] was 100, the “Oat, Wild plant response rating” value ([13]; 16 g ai/ha, 0 to 100 scale) was 50 and the “Oat, Wild plant response rating (0-100)” value [13, 28] was 90. The “Pigweed, Palmer plant response rating” value ([14]; 16 g ai/ha, 0 to 100 scale) was 100, the “Pigweed, Palmer plant response rating (0-100)” value [14, 28] was 100 and the “Ragweed plant response rating (0-100)” value [15, 29] was 80. The “Ragweed plant response rating (0 to 100 scale)” value [15, 30] was 70, the “Horseweed plant response rating (0-100)” value [16, 29] was 80 and the “Horseweed plant response rating (0 to 100 scale)” value [16, 30] was 80. For the same compound, the “Galium plant response rating (0-100)” value [17, 29] was 80, the “Galium plant response rating (0 to 100 scale)” value [17, 30] was 80 and the “Blackgrass plant response rating (0-100)” value [18, 29] was 90. The “Blackgrass plant response rating (0 to 100 scale)” value [18, 30] was 80, the “Wheat plant response rating (0-100)” value [19, 29] was 90 and the “Wheat plant response rating (0 to 100 scale)” value [19, 30] was 90. For the same compound, the “Ryegrass, Italian plant response rating (0-100)” value [20, 29] was 90, the “Ryegrass, Italian plant response rating (0 to 100 scale)” value [20, 30] was 80 and the “Barnyardgrass plant response rating (0-100)” value [21, 29] was 90. The “Barnyardgrass plant response rating (0 to 100 scale)” value [21, 30] was 90, the “Soybean plant response rating (0-100)” value (soybean (Glycine max) [22]; [29]) was 80 and the “Soybean plant response rating (0 to 100 scale)” value (soybean (Glycine max) [22]; [30]) was 80. For the same compound, the “Corn plant response rating (0-100)” value (corn (Zea mays) [23]; [29]) was 100, the “Corn plant response rating (0 to 100 scale)” value (corn (Zea mays) [23]; [30]) was 100 and the “Kochia plant response rating (0-100)” value (kochia (Bassia scoparia) [24]; [29]) was 80. The “Kochia plant response rating (0 to 100 scale)” value (kochia (Bassia scoparia) [24]; [30]) was 80, the “Foxtail, Green plant response rating (0-100)” value [25, 29] was 90 and the “Foxtail, Green plant response rating (0 to 100 scale)” value [25, 30] was 90. For the same compound, the “Oat, Wild plant response rating (0-100)” value [26, 29] was 90, the “Oat, Wild plant response rating (0 to 100 scale)” value [26, 30] was 90 and the “Pigweed, Palmer plant response rating (0-100)” value [27, 29] was 90. For the same compound, the “Pigweed, Palmer plant response rating (0 to 100 scale)” value [27, 30] was 90.
